Laboratory results from patent US20240390295A1, “METHODS FOR TREATING DEPRESSION” (JANSSEN PHARMACEUTICA NV, priority 2020, published 2024).
“And” between values parts separate entries of the source, which are not always exact repeats. Equal values may be shown once.

Tested on: adult patients (aged 18-64 years) with TRD
Assay: Maximum time to onset of clinician-reported adverse events by AE week 1/week 4 occurrence (Tables 5-16; modal dose 56, modal dose 84, Total)
Assay type: in vivo, human
Conditions: for Blood Pressure (clinician): n >60 m / Blood Pressure (clinician): 31-60 m / Blood Pressure (clinician): 61-90 m / Blood Pressure (clinician): % >60 m / Blood Pressure (clinician): TOTAL / Dissociation (clinician), % >60 m / Dizziness, % >60 m / Sedation, % >60 m / Vertigo, % >60 m: Based on Week 4; for Sedation(clinician-reported), n (%) / Vertigo(clinician-reported), n (%) / Dissociation(clinician-reported), n (%) / Blood pressure increased (clinician-reported), n (%) / Dizziness(clinician-reported), n (%): listed as ESK
Method: Patients were monitored for >90 minutes after ESK administration at each treatment session, after which time they could leave the clinical site at the clinician's discretion. AEs were monitored and reported, and safety assessments, including clinical laboratory tests and physical examinations, were conducted throughout the study. Clinician-reported AEs were categorized as mild, moderate, or severe based on clinical judgement (Table 1).
Since flexible dosing (ESK 56 or 84 mg) was permitted in the studies and an individual patient's doses could change within dosing timeframes, patients were stratified by modal dose during the respective periods.
The time to onset of the adverse events experienced by patients in Example 2 was analyzed. Tables 5-11 include the summary of specific adverse events by their respective categorized maximum time to Onset (i) across sessions 3-8 during Induction Phase by AE week 1 occurrence (Table 5), (ii) during Optimization Phase by AE week 1 occurrence (Table 6), (iii) during Optimization Phase by AE week 4 occurrence (Table 7), (iv) during Month 3-6 of Maintenance Phase by AE week 1 occurrence (Table 8), (v) Month 3-6 of Maintenance Phase by AE week 4 occurrence (Table 9), (vi) Month 6-12 of Maintenance Phase by AE week 1 occurrence (Table 10), and (vii) during Month 6-12 of Maintenance Phase by AE week 4 (Table 11).
Tables 12-16 include the incidences of clinician-reported blood pressure (Table 12), clinician-reported dissociation (Table 13), dizziness (Table 14), sedation (Table 15), and vertigo (Table 16) spanning week 1 to month 12 using the data of Example 2.

[1] = Induction Phase sessions 3-8, AE week 1 None
[2] = Induction Phase sessions 3-8, AE week 1 Once
[3] = Induction Phase sessions 3-8, AE week 1 Twice
[4] = Month 3-6 Maintenance, AE week 1 None, onset missing
[5] = Month 3-6 Maintenance, AE week 4 None, onset 31-60 minutes
[6] = Month 3-6 Maintenance, AE week 4 None, onset missing
[7] = Month 6-12 Maintenance, AE week 4 Once
[8] = Month 6-12 Maintenance, AE week 4 Twice, onset 31-60 minutes
[9] = Optimization Phase, AE week 1 Once
[10] = Optimization Phase, AE week 4 None

CN[C@]1(c2ccccc2Cl)CCCCC1=O [esketamine, (S)-2-(2-chlorophenyl)-2-(methylamino)cyclohexanone]
Blood Pressure (clinician): n >60 m (None, Month 3-6): 1 | Blood Pressure (clinician): 31-60 m (None, Month 6-12): 6 | Blood Pressure (clinician): 61-90 m (None, Month 6-12): 1 | Blood Pressure (clinician): % >60 m (None, Month 6-12): 12.5% | Blood Pressure (clinician): TOTAL (None, Month 6-12): 8 | Blood Pressure (clinician): n >60 m (None, Month 6-12): 1 | Blood Pressure (clinician): 31-60 m (Once, Month 2): 9 | Blood Pressure (clinician): % >60 m (Once, Month 2): 0% | Blood Pressure (clinician): TOTAL (Once, Month 2): 9 | Blood Pressure (clinician): n >60 m (Once, Month 2): 0 | Blood Pressure (clinician): 31-60 m (Once, Month 3-6): 5 | Blood Pressure (clinician): % >60 m (Once, Month 3-6): 0% | Blood Pressure (clinician): TOTAL (Once, Month 3-6): 5 | Blood Pressure (clinician): n >60 m (Once, Month 3-6): 0 | Blood Pressure (clinician): 31-60 m (Once, Month 6-12): 3 | Blood Pressure (clinician): % >60 m (Once, Month 6-12): 0% | Blood Pressure (clinician): TOTAL (Once, Month 6-12): 3 | Blood Pressure (clinician): n >60 m (Once, Month 6-12): 0 | Blood Pressure (clinician): 31-60 m (Twice, Month 2): 9 | Blood Pressure (clinician): % >60 m (Twice, Month 2): 0% | Blood Pressure (clinician): TOTAL (Twice, Month 2): 9 | Blood Pressure (clinician): n >60 m (Twice, Month 2): 0 | Blood Pressure (clinician): 31-60 m (Twice, Month 3-6): 2 | Blood Pressure (clinician): 61-90 m (Twice, Month 3-6): 1 | Blood Pressure (clinician): % >60 m (Twice, Month 3-6): 33.3% | Blood Pressure (clinician): TOTAL (Twice, Month 3-6): 3 | Blood Pressure (clinician): n >60 m (Twice, Month 3-6): 1 | Blood Pressure (clinician): 31-60 m (Twice, Month 6-12): 2 | Blood Pressure (clinician): % >60 m (Twice, Month 6-12): 0% | Blood Pressure (clinician): TOTAL (Twice, Month 6-12): 2 | Blood Pressure (clinician): n >60 m (Twice, Month 6-12): 0 | Dissociation (clinician), % >60 m (incidence None, Month 2): 0% | Dizziness, % >60 m (incidence None, Month 2): 8.6% | Sedation, % >60 m (incidence None, Month 2): 0% | Vertigo, % >60 m (incidence None, Month 2): 12% | Dissociation (clinician), % >60 m (incidence None, Month 3-6): 2.6% | Dizziness, % >60 m (incidence None, Month 3-6): 2.1% | Sedation, % >60 m (incidence None, Month 3-6): 14.3% | Vertigo, % >60 m (incidence None, Month 3-6): 13.6% | Dissociation (clinician), % >60 m (incidence None, Month 6-12): 4.2% | Dizziness, % >60 m (incidence None, Month 6-12): 0% | Sedation, % >60 m (incidence None, Month 6-12): 0% | Vertigo, % >60 m (incidence None, Month 6-12): 0% | Dissociation (clinician), % >60 m (incidence Once, Month 2): 4.8% | Dizziness, % >60 m (incidence Once, Month 2): 3.7% | Sedation, % >60 m (incidence Once, Month 2): 0% | Vertigo, % >60 m (incidence Once, Month 2): 4.3% | Dissociation (clinician), % >60 m (incidence Once, Month 3-6): 6.7% | Dizziness, % >60 m (incidence Once, Month 3-6): 0% | Sedation, % >60 m (incidence Once, Month 3-6): 0% | Vertigo, % >60 m (incidence Once, Month 3-6): 0% | Dissociation (clinician), % >60 m (incidence Once, Month 6-12): 0% | Dizziness, % >60 m (incidence Once, Month 6-12): 0% | Sedation, % >60 m (incidence Once, Month 6-12): 0% | Vertigo, % >60 m (incidence Once, Month 6-12): 25% | Dissociation (clinician), % >60 m (incidence Twice, Month 2): 0% | Dizziness, % >60 m (incidence Twice, Month 2): 3.8% | Sedation, % >60 m (incidence Twice, Month 2): 0% | Vertigo, % >60 m (incidence Twice, Month 2): 0% | Dissociation (clinician), % >60 m (incidence Twice, Month 3-6): 3% | Dizziness, % >60 m (incidence Twice, Month 3-6): 3% | Sedation, % >60 m (incidence Twice, Month 3-6): 0% | Vertigo, % >60 m (incidence Twice, Month 3-6): 9.5% | Dissociation (clinician), % >60 m (incidence Twice, Month 6-12): 0% | Dizziness, % >60 m (incidence Twice, Month 6-12): 5.9% | Sedation, % >60 m (incidence Twice, Month 6-12): 0% | Vertigo, % >60 m (incidence Twice, Month 6-12): 0% | Blood pressure increased: time to onset 31-60 minutes [1]: 10 (90.9%) and 10 (100%) and 20 (95.2%) | Sedation: time to onset 31-60 minutes [1]: 2 (22.2%) and 2 (20.0%) and 4 (21.1%) | Sedation: time to onset >90 minutes [1]: 1 (11.1%) and 1 (10.0%) and 2 (10.5%) | Vertigo: time to onset 61-90 minutes [1]: 1 (3.3%) and 1 (6.7%) and 2 (4.4%) | Dizziness: time to onset 31-60 minutes [2]: 4 (12.1%) and 4 (17.4%) and 8 (14.3%) | Dizziness: time to onset 61-90 minutes [2]: 1 (3.0%) and 1 (4.3%) and 2 (3.6%) | Vertigo: time to onset >90 minutes [2]: 1 (9.1%) and 1 (5.6%) and 2 (6.9%) | Dissociation: time to onset 61-90 minutes [3]: 2 (5.6%) and 2 (7.1%) and 4 (6.3%) | Dizziness: time to onset >90 minutes [3]: 1 (2.8%) and 1 (2.5%) and 2 (2.6%) | Sedation(clinician-reported), n (%) (Month 3-6 Maintenance, AE week 1 None, onset 31-60 minutes): 1 (20.0%) and 1 (8.3%) and 2 (11.8%) | Vertigo(clinician-reported), n (%) (Month 3-6 Maintenance, AE week 1 None, onset 61-90 minutes): 1 (10.0%) and 1 (12.5%) and 2 (11.1%) | Dissociation(clinician-reported), n (%) [4]: 1 (5.9%) and 1 (5.3%) and 2 (5.6%) | Sedation(clinician-reported), n (%) [4]: 1 (20.0%) and 1 (8.3%) and 2 (11.8%) | Blood pressure increased (clinician-reported), n (%) (Month 3-6 Maintenance, AE week 1 Once): 2 (2.0%) and 2 (1.9%) and 4 (2.0%) | Blood pressure increased (clinician-reported), n (%) (Month 3-6 Maintenance, AE week 1 Once, onset 31-60 minutes): 2 (100%) and 4 (100%) | Blood pressure increased (clinician-reported), n (%) (Month 3-6 Maintenance, AE week 1 Twice): 2 (2.0%) and 2 (1.9%) and 4 (2.0%) | Vertigo(clinician-reported), n (%) (Month 3-6 Maintenance, AE week 1 Twice, onset 0-30 minutes): 11 (91.7%) and 11 (84.6%) and 22 (88.0%) | Dissociation(clinician-reported), n (%) [5]: 5 (27.8%) and 5 (25.0%) and 10 (26.3%) | Sedation(clinician-reported), n (%) [5]: 1 (20.0%) and 1 (11.1%) and 2 (14.3%) | Vertigo(clinician-reported), n (%) (Month 3-6 Maintenance, AE week 4 None, onset 61-90 minutes): 1 (8.3%) and 1 (10.0%) and 2 (9.1%) | Dissociation(clinician-reported), n (%) [6]: 1 (5.6%) and 1 (5.0%) and 2 (5.3%) | Dizziness(clinician-reported), n (%) [6]: 2 (6.9%) and 2 (11.1%) and 4 (8.5%) | Vertigo(clinician-reported), n (%) (Month 3-6 Maintenance, AE week 4 Once): 3 (3.0%) and 3 (2.9%) and 6 (3.0%) | Vertigo(clinician-reported), n (%) (Month 3-6 Maintenance, AE week 4 Once, onset 0-30 minutes): 3 (100%) and 6 (100%) | Dizziness(clinician-reported), n (%) (Month 3-6 Maintenance, AE week 4 Once, onset 31-60 minutes): 1 (14.3%) and 1 (16.7%) and 2 (15.4%) | Vertigo(clinician-reported), n (%) (Month 3-6 Maintenance, AE week 4 Twice, onset 61-90 minutes): 1 (12.5%) and 1 (7.7%) and 2 (9.5%) | Sedation(clinician-reported), n (%) (Month 6-12 Maintenance, AE week 1 None): 5 (7.5%) and 5 (8.3%) and 10 (7.9%) | Sedation(clinician-reported), n (%) (Month 6-12 Maintenance, AE week 1 None, onset missing): 1 (20.0%) and 2 (20.0%) | Dizziness(clinician-reported), n (%) (Month 6-12 Maintenance, AE week 1 Twice): 7 (10.4%) and 7 (11.7%) and 14 (11.0%) | Vertigo(clinician-reported), n (%) (Month 6-12 Maintenance, AE week 1 Twice, onset 31-60 minutes): 1 (10.0%) and 1 (16.7%) and 2 (12.5%) | Sedation(clinician-reported), n (%) (Month 6-12 Maintenance, AE week 4 None): 4 (6.0%) and 4 (6.7%) and 8 (6.3%) | Vertigo(clinician-reported), n (%) (Month 6-12 Maintenance, AE week 4 None, onset 31-60 minutes): 1 (14.3%) and 1 (25.0%) and 2 (18.2%) | Sedation(clinician-reported), n (%) (Month 6-12 Maintenance, AE week 4 None, onset missing): 1 (25.0%) and 2 (25.0%) | Sedation(clinician-reported), n (%) [7]: 2 (3.0%) and 2 (3.3%) and 4 (3.1%) | Vertigo(clinician-reported), n (%) [7]: 2 (3.0%) and 2 (3.3%) and 4 (3.1%) | Vertigo(clinician-reported), n (%) (Month 6-12 Maintenance, AE week 4 Once, onset 0-30 minutes): 1 (50.0%) and 2 (50.0%) | Dissociation(clinician-reported), n (%) (Month 6-12 Maintenance, AE week 4 Once, onset 31-60 minutes): 1 (100%) and 1 (12.5%) and 2 (22.2%) | Blood pressure increased (clinician-reported), n (%) (Month 6-12 Maintenance, AE week 4 Twice): 1 (1.5%) and 1 (1.7%) and 2 (1.6%) | Blood pressure increased (clinician-reported), n (%) [8]: 1 (100%) and 2 (100%) | Vertigo(clinician-reported), n (%) [8]: 1 (11.1%) and 1 (16.7%) and 2 (13.3%) | Dizziness: time to onset >90 minutes [9]: 1 (5.6%) and 1 (6.7%) and 2 (6.1%) | Sedation: patients with AE [9]: 2 (1.5%) and 2 (1.2%) and 4 (1.3%) | Vertigo: time to onset 31-60 minutes [9]: 1 (12.5%) and 1 (9.1%) and 2 (10.5%) | Vertigo: time to onset >90 minutes [9]: 1 (12.5%) and 1 (9.1%) and 2 (10.5%) | Blood pressure increased: patients with AE [10]: 9 (6.8%) and 9 (5.4%) and 18 (6.0%) | Dissociation: patients with AE [10]: 23 (17.4%) and 23 (13.8%) and 46 (15.4%) | Sedation: patients with AE [10]: 5 (3.8%) and 5 (3.0%) and 10 (3.3%) | Vertigo: time to onset 61-90 minutes [10]: 1 (10.0%) and 1 (6.7%) and 2 (8.0%) | Dizziness: time to onset 31-60 minutes (Optimization Phase, AE week 4 Once): 1 (9.1%) and 1 (6.3%) and 2 (7.4%) | Dizziness: time to onset 31-60 minutes (Optimization Phase, AE week 4 Twice): 1 (3.7%) and 1 (3.8%) and 2 (3.8%) | time at which adverse events (particularly dissociation, increase in blood pressure) generally peak (human, in vivo, other: intranasal): ~40 min
